Reference: patent publication US20210382058A1, “PATIENT SELECTION FOR TREATMENT OF MYC POSITIVE CANCERS WITH INDENOISOQUINOLINES” (Purdue Research Foundation, priority 2020, published 2021)
Like-named read-outs stand apart in the source and are kept apart here.

Legend:
[1] = system: MYC protein expression in MCF-7 breast cancer cells; test: Western blotting of MYC protein level in MCF-7 cells; assay type: cell-based, human; conditions: Homo sapiens, MCF7; western blotting, MCF-7 cells, 0.5, 1, 2, and 4 μM, 24 hours; read-out: MYC Inhibition
Method: MCF-7 cells were incubated with each compound at four concentrations (0.5, 1, 2, and 4 μM) for 24 hours, and the MYC protein levels were measured (FIG. 3A and FIGS. 12 A to 12 F).
Cells were incubated at 37° C. with 5% CO2.
The gels were cut into strips that contained the proteins of interest and transferred to nitrocellulose membrane (I323002, Invitrogen) using an iBlot 2 Dry Transfer Device (Invitrogen). Immunoblotting was carried out according to standard procedures using the ECL detection method. The membrane was hybridized with the following antibodies: monoclonal anti-MYC (1:1000 dilution; rabbit, Cell Signaling Technology), monoclonal anti-GAPDH (1:2000 dilution; rabbit, Cell Signaling Technology).

NCI-60 cancer cell lines = test: NCI-60 cancer cell line drug screen (GI50, MGM); assay type: cell-based, human; conditions: Homo sapiens; for GI50: read-out: Antiproliferative Activities [GI50 (μM)]
Method: Cancer cells were incubated with the test compounds at five concentrations ranging from 100 μM to 10 nM for 48 h. […] The approximate average of GI50 values across the entire panel of NCI-60 cancer cell lines for each compound was recorded as the MGM value.

MycG4 (MycPu22 DNA) = test: FRET-melting assay (thermal stabilization of MycG4); assay type: binding, human; conditions: FIG. 4
Method: To confirm the stabilizing effect of indenoisoquinolines on MycG4, the Tm values of MycG4 were measured in the presence of indenoisoquinoline compounds in 10 mM K^+ using dual-3′-FAM- and 5′-TAMRA-labeled MycPu22 DNA by FRET-melting experiments. MycPu22 DNA forms a single MycG4 structure and was used for NMR structure determination (FIG. 1B, right).^43 Therefore, MycPu22 provides the best molecular system for MycG4 and was used in all the subsequent experiments. […] (FIG. 2B). A clear positive correlation was observed between the indenoisoquinolines' ability to induce MycG4 formation and to increase its thermal stability (FIG. 2C).
FRET-melting experiments. The stock solution containing 100 μM 3′-TAMRA (Ex. 555 nm/Em. 580 nm), 5′-FAM (Ex. 490 nm/Em. 520 nm) dual-labeled MycPu22 DNA sequence was first diluted to 2 μM using 7.5 mM KCl, 2.5 mM phosphate buffer, pH 7.0. […] With gradually increasing temperature, the MycPu22 DNA is unfolded from the G4 form to a single-stranded conformation where the FAM is far apart to the TAMRA, which results in a high FAM fluorescence. Melting curves for the determination of Tm were then obtained by recording FAM fluorescence with increasing temperatures from 25 to 95° C. at a rate of 0.9° C./min using a QuantStudio 6 Flex Real-Time PCR System. The Tm values were determined by the maximum of the first derivative plot of the melting curves. […]

Row | SMILES | minimal effective concentration [1] [µM] | GI50 (NCI-60 cancer cell lines; A549, Non-Small Cell Lung Cancer, A549/ATCC) [µM] | GI50 (NCI-60 cancer cell lines; CCRF-CEM, Leukemia, CCRF-CEM) [µM] | GI50 (NCI-60 cancer cell lines; COLO 205, Colon Cancer, COLO 205) [µM] | GI50 (NCI-60 cancer cell lines; EKVX, Non-Small Cell Lung Cancer, EKVX) [µM] | GI50 (NCI-60 cancer cell lines; HCC 2998, Colon Cancer, HCC-2998) [µM] | GI50 (NCI-60 cancer cell lines; HCT-116, Colon Cancer, HCT-116) [µM] | GI50 (NCI-60 cancer cell lines; HL-60, Leukemia, HL-60(TB)) [µM] | GI50 (NCI-60 cancer cell lines; HOP-92, Non-Small Cell Lung Cancer, HOP-92) [µM] | GI50 (NCI-60 cancer cell lines; Leukemia, SR) [µM] | GI50 (NCI-60 cancer cell lines; MOLT-4, Leukemia, MOLT-4) [µM] | GI50 (NCI-60 cancer cell lines; NCI-H23, Non-Small Cell Lung Cancer, NCI-H23) [µM] | GI50 (NCI-60 cancer cell lines; NCI-H226, Non-Small Cell Lung Cancer, NCI-H226) [µM] | GI50 (NCI-60 cancer cell lines; NCI-H322M, Non-Small Cell Lung Cancer, NCI-H322M) [µM] | GI50 (NCI-60 cancer cell lines; NCI-H460, Non-Small Cell Lung Cancer, NCI-H460) [µM] | GI50 (NCI-60 cancer cell lines; NCI-H522, Non-Small Cell Lung Cancer, NCI-H522) [µM] | GI50 (NCI-60 cancer cell lines; RPMI-8226, Leukemia, RPMI-8226) [µM] | mean GI50 across NCI-60 panel (MGM) (NCI-60 cancer cell lines; average of GI50 values across the entire panel of NCI-60 cancer cell lines) [nM] | MycG4 binding and stabilizing activity (SAR) (MycG4 (MycPu22 DNA))
1 | COc1cc2c3c(n(CCCN(C)C)c(=O)c2cc1OC)-c1cc2c(cc1C3=O)OCO2 [Compound 47] | 2 | 0.89 | < 0.01 | 0.94 | 1.46 | 0.13 | 0.22 | 1.6 | 1.3 | < 0.01 | < 0.01 | 0.19 | 1.4 | 1.56 | 0.28 | 0.31 | 0.3 | 390 | medium
2 | O=C1c2ccccc2-c2c1c1ccccc1c(=O)n2CCCN1CCOCC1 [Compound 16] |  |  |  |  |  |  |  |  |  |  |  |  |  |  |  |  |  |  | weakened
